Results as given in patent US7622481B2, “Antibacterial compounds” (priority 2003, dated 2009).
Where a name gives a salt, the structure may show the parent alone. Read-outs that look alike come from different tables or passages of the source.

Test: MIC of test compounds against various organisms
Assay type: cell-based
Description: The MIC (μg/ml) of test compounds against various organisms was determined including:
S. epidermidis CL7, S. aureus WCUH29, S. pneumoniae 1629, S. pyogenes CN10, H. influenzae ATCC 49247, E. faecalis 2, M. catarrhalis Ravasio, E. coli 7623.

[1] = versus all these organisms (panel of 8 strains), read-out: MIC

N#Cc1ccc2cccc(NC(=O)[C@]3(O)CC[C@@H](NCc4ccc5c(n4)NC(=O)CS5)CC3)c2n1 [Example 10, 1-Hydroxy-t-4-[(3-oxo-3,4-dihydro-2H-pyrido[3,2-b][1,4]thiazin-6-ylmethyl)-amino]-r-cyclohexanecarboxylic acid (2-cyano-quinolin-8-yl)-amide dihydrochloride]
MIC [1]: ≤ 2 µg/mL

N#Cc1ccc2cccc(NC(=O)[C@@H]3CC[C@@H](NCc4ccc5c(n4)NC(=O)CO5)[C@@H](O)C3)c2n1 [Example 9, (1R,3S,4R)-3-Hydroxy-4-[(3-oxo-3,4-dihydro-2H-pyrido[3,2-b][1,4]oxazin-6-ylmethyl)-amino]-cyclohexanecarboxylic acid (2-cyano-quinolin-8-yl)-amide hydrochloride]
MIC [1]: ≤ 2 µg/mL

COc1ccc2cccc(NC(=O)[C@]3(O)CC[C@@H](NCc4nc5c(cc4F)SCC(=O)N5)CC3)c2n1 [Example 23, t-4-[(7-Fluoro-3-oxo-3,4-dihydro-2H-pyrido[3,2-b][1,4]thiazin-6-ylmethyl)-amino]-1-hydroxy-r-cyclohexanecarboxylic acid (2-methoxy-quinolin-8-yl)-amide dihydrochloride]
MIC [1]: ≤ 8 µg/mL

COc1ccc2cccc(NC(=O)[C@]3(O)CC[C@@H](NCc4ccc5c(n4)NC(=O)CO5)CC3)c2n1 [Example 17, 1-Hydroxy-t-4-[(3-oxo-3,4-dihydro-2H-pyrido[3,2-b][1,4]oxazin-6 ylmethyl)-amino]-r-cyclohexanecarboxylic acid (2-methoxy-quinolin-8-yl)-amide]
MIC [1]: ≤ 2 µg/mL

COc1ccc2nccc(NC(=O)[C@@H]3CC[C@@H](NCc4ccc5c(n4)NC(=O)CO5)[C@@H](F)C3)c2n1 [Example 31, (1R,3S,4R)-3-Fluoro-4-[(3-oxo-3,4-dihydro-2H-pyrido[3,2-b][1,4]oxazin-6-ylmethyl)-amino]-cyclohexanecarboxylic acid (6-methoxy-[1,5]naphthyridin-4-yl)-amide dihydrochloride]
MIC: ≤ 2 µg/mL

O=C1CSc2ccc(CN[C@H]3CC[C@](O)(C(=O)Nc4ccnc5ccsc45)CC3)nc2N1 [Example 1, 1 -Hydroxy-t-4-[(3-oxo-3,4-dihydro-2H-pyrido[3,2-b][1 ,4]thiazin-6-ylmethyl) -amino]-r-cyclohexanecarboxylic acid thieno[3,2-b]pyridin-7-ylamide dihydrochioride]
MIC [1]: ≤ 8 µg/mL

N#Cc1ccc2cccc(NC(=O)[C@]3(O)CC[C@@H](NCc4cc5c(cn4)OCCO5)CC3)c2n1 [Example 38, t-4-[(2,3-Dihydro-[1,4]dioxino[2,3-c]pyridin-7-ylmethyl)-amino]-1-hydroxy-r-cyclohexanecarboxylic acid (2-cyano-quinolin-8-yl)-amide hydrochloride]
MIC [1]: ≤ 2 µg/mL

COc1ccc2cccc(NC(=O)[C@]3(O)CC[C@@H](NCc4ccc5c(n4)NCCS5)CC3)c2n1 [Example 6, 4-[(3,4-Dihydro-2H-pyrido[3,2-b][1,4]thiazin-6-ylmethyl)-amino]-1-hydroxy-cyclohexanecarboxylic acid (2-methoxy-quinolin-8-yl)-amide]
MIC [1]: ≤ 8 µg/mL

CO[C@@H]1C[C@H](C(=O)Nc2cccc3ccc(C)nc23)CC[C@H]1NCc1cc2c(cn1)OCCO2 [Example 39, (1R,3R,4R)-4-[(2,3-Dihydro-[1,4]dioxino[2,3-c]pyridin-7-ylmethyl)-amino]-3-methoxy-cyclohexanecarboxylic acid (2-methyl-quinolin-8-yl)-amide dihydrochloride]
MIC: ≤ 2 µg/mL

COc1ccc2cccc(NC(=O)[C@@H]3CC[C@@H](NCc4ccc5c(n4)NC(=O)CS5)[C@H](O)C3)c2n1 [Example 20, (1R,3R,4R)-3-Hydroxy-4-[(3-oxo-3,4-dihydro-2H-pyrido[3,2-b)[1,4]thiazin-6-ylmethyl)-amino]-cyclohexanecarboxylic acid (2-methoxy-quinolin-8-yl)-amide dihydrochloride]
MIC [1]: ≤ 2 µg/mL

Cc1ccc2cccc(NC(=O)[C@]3(O)CC[C@@H](NCc4ccc5c(n4)NC(=O)CO5)CC3)c2n1 [Example 18, 1-Hydroxy-t-4-[(3-oxo-3,4-dihydro-2H-pyrido[3,2-b][1,4]oxazin-6-ylmethyl)-amino]-r-cyclohexanecarboxylic acid (2-methyl-quinolin-8-yl)-amide dihydrochloride]
MIC [1]: ≤ 2 µg/mL

COc1cccc2nccc(NC(=O)[C@]3(O)CC[C@@H](NCc4ccc5c(n4)NC(=O)CS5)CC3)c12 [Example 28, 1-Hydroxy-t-4-[(3-oxo-3,4-dihydro-2H-pyrido[3,2-b][1,4]thiazin-6-ylmethyl)-amino]-r-cyclohexanecarboxylic acid (5-methoxy-quinolin-4-yl)-amide dihydrochloride]
MIC [1]: ≤ 8 µg/mL

N#Cc1ccc2cccc(NC(=O)[C@@H]3CC[C@@H](NCc4ccc5c(n4)NC(=O)CS5)[C@@H](O)C3)c2n1 [Example 16, (1R,3S,4R)-3-Hydroxy-4-[(3-oxo-3,4-dihydro-2H-pyrido[3,2-b][1,4]thiazin-6-ylmethyl)-amino]-cyclohexanecarboxylic acid (2-cyano-quinolin-8-yl)-amide hydrochloride]
MIC [1]: ≤ 2 µg/mL

Cc1cnc2cccc(NC(=O)[C@]3(O)CC[C@@H](NCc4cc5c(cn4)OCCO5)CC3)c2n1 [Example 42, t-4-[(2,3-Dihydro[1,4]dioxino[2,3-c]pyridin-7-ylmethyl)amino]-1-hydroxy-N-(3-methyl-5-quinoxalinyl)-r-cyclohexanecarboxamide dihydrochloride]
MIC [1]: ≤ 8 µg/mL
